Results reported in US9079896B2, “Urotensin II receptor antagonists” (Janssen Pharmaceutica NV, priority 2008, dated 2015).

Key:
[1] = tested on: isolated arterial rings of rats and humans; details: read-out: EC50 (concentration-dependent contraction); cited from earlier work
[2] = target: T1, rat GPR14 (U-II receptor) (Rattus norvegicus, UniProt P49684); assay: Rat UII Calcium Mobilization FLIPR Assay; format: cell-based; details: antagonist activity after 5 min incubation vs agonist (Ac)-CFWK(2-NaI)C-NH2 at 1 nM; CHO cells transfected with rat GPR14
T1 construct: expressed in transfected cells
T1 sequence (P49684 1-386): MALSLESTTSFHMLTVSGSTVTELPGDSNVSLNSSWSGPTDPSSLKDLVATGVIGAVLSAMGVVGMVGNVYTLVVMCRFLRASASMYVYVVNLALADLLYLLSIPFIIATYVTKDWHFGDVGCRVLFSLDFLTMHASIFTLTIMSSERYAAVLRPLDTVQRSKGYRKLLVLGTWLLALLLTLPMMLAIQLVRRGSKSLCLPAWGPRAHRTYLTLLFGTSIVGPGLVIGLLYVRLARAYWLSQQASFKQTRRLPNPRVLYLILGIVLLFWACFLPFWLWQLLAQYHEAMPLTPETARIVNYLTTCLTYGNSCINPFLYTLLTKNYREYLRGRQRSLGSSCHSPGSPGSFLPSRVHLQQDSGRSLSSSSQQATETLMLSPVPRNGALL
Description: A calcium mobilization assay based on a Fluorescence Imaging Plate
Res. Commun. 1995, 209, 752-759. A. Marchese, M. Heiber, T. Nguyen, H. H. Heng, V. R. Saldivia, R. Cheng, P. M. Murphy, L. C. Tsui, X. Shi, P. Gregor, Genomics 1995, 29, 335-344.).
To derive these cells, the complete coding sequence of rat U-II (Genbank Accession No. U32673) was amplified by nested PCR from rat heart marathon-Ready cDNA. […] The PCR products were cloned into pcDNA3 (Invitrogen) digested with EcoR I and Xba I. Clones containing rat U-II receptor were verified by complete sequencing of the U-II receptor insert to ensure a lack of PCR-introduced errors. The constructed vector was transfected into CHO cells by using lipofectamine (GIBCO BRL). CHO cells with high expression of rat U-II receptor were selected and established as stable cell lines by using G418. CHO cells were seeded at 25,000 cells per well into 96-well, black-wall, clear-bottom microtiter plates 24 h before assay. Cells in culture media (DMEM/F12 containing 15 mM HEPES, L-glutamine, pyridoxine hydrochloride; 10% fetal bovine serum; 1 mg/mL G418 sulfate; antibiotic-antimycotic; pH 7.4) were loaded with proprietary dye, from the FLIPR Calcium Assay Kit (Molecular Devices), prepared in assay buffer (Hanks Balanced Salts Solution, 20 mM HEPES, 0.1% BSA, 2.5 mM probenecid, pH 7.4), and incubated for 1 h at 37° C. […]

[3] = target: T2, Human UII (6D9 human rhabdomyosarcoma cells) (Homo sapiens, UniProt Q9UKP6); assay: Human UII Calcium Mobilization Assay; format: cell-based; details: FLIPR TETRA, column head prints Ki (μM), read-out: Human UII Ca+ Mobilization Average IC50
T2 construct: 6D9: isolated by dilution subcloning of RMS13 cells; host or cells: 6D9 human rhabdomyosarcoma cells (subclone of RMS13)
T2 sequence (Q9UKP6 1-389): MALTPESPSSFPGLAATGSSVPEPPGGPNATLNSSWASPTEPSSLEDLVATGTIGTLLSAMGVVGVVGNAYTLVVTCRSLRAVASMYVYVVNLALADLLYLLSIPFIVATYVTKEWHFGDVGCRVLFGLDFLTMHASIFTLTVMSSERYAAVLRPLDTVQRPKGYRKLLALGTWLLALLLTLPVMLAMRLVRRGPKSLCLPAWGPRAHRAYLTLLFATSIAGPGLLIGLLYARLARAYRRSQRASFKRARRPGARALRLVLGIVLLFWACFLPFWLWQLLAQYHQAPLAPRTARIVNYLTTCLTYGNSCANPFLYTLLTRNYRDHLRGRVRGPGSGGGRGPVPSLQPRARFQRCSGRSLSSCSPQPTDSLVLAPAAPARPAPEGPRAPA
Method: 25 μL of dye solution was added to the wells such that the final liquid volume before agonist/antagonist treatment was 50 μL for all assays. The cell plates were incubated at 37° C. for 45 minutes and the fluorescence intensity was measured on a Fluorometric Imaging Plate Reader (FLIPR^TETRA, Molecular Devices, Sunnyvale, Calif.).
Antagonist and agonist U-II were added at room temperature on the FLIPR^TETRA, and the fluorescence intensity before and after addition was measured over a period of 4 minutes. The dye incubation time and temperature as well as instrument setting was adjusted so the fluorescence intensity could be compared between plates on the same day. EC50 and IC50 were analyzed using GraphPad Prism 4 software (GraphPad Software Inc., San Diego, Calif.).
For assays, U-II agonist, U-II antagonist and urantide were diluted with HBSS/HEPES containing 0.01% FBS.
Test compounds were dissolved in DMSO at 10 mM concentration. The serial dilutions were carried out in HBSS/HEPES. The highest final DMSO concentration was at 0.1%.

[4] = target: T3, UT receptors in Human Skeletal Muscle Myoblasts (HSMM) (Homo sapiens, UniProt Q9UKP6); details: read-out: Human UII Average Binding Ki; 0.150 nM (125I)-U-II, intact HSMM, 3 h, 25° C.
T3 sequence (Q9UKP6 1-389): T2 sequence (Q9UKP6 1-389)

[5] = target: T1, rat GPR14 (U-II receptor); details: agonist cyclic peptide used in the assay; read-out: FLIPR EC50; cited from earlier work
rU-II = target: T4, rU-II (Rattus norvegicus, UniProt P49684); details: agonist cyclic peptide used in the assay; cited from earlier work
T4 sequence (P49684 1-386): T1 sequence (P49684 1-386)

AGTAD-cyclo(CFWKYC)-V [Goby U-II, urotensin-II isolated from the urophysis of the goby fish, a 12-mer]
EC50 [1]: < 1 nM

CCN1CCN(c2cccc3c2[C@H]2CCC[C@H](c4ccc(OC)c(OC)c4)N2C3=O)CC1 [Compound 1, (R,R)-4-(3,4-Dimethoxy-phenyl)-10-(4-ethyl-piperazin-1-yl)-1,3,4,10b-tetrahydro-2H-pyrido[2,1-a]isoindol-6-one]
Ki [2]: 6 nM | IC50 [3]: 0.34 µM | Ki [4]: 64 nM

(Ac)-CFWK(2-NaI)C—NH2
EC50 [5]: 0.54 ± 0.2 nM | Ki (rU-II): 0.12 ± 0.05 nM

CCN1CCN(c2cccc3c2[C@H]2CCCC[C@H](c4ccc(OC)c(OC)c4)N2C3=O)CC1 [Compound 2, (R,R)-7-(3,4-Dimethoxy-phenyl)-1-(4-ethyl-piperazin-1-yl)-7,8,9,10,11,11a-hexahydro-azepino[2,1-a]isoindol-5-one]
Ki [2]: 34 nM
